Series [1] has as its system HL-7702 normal human liver cell line. Briefly: MTT cytotoxicity assay, HL-7702 normal liver cells. It is filed as cell-based. Particulars: L02, normal human liver cell HL-7702.
Series [2] concerns HeLa (epithelial cervical) human carcinoma cell line. In words: MTT cytotoxicity assay, HeLa cells. The conditions noted are these: 48 h exposure. In kind it is cell-based. On the procedure: (§1) Compounds 4a–x were evaluated for their cytotoxic activity in vitro against the human cancer cell lines, CNE-2, HepG2, HeLa, and BEL-7402 by using a 3-(4,5-dimethylthiazol-2-yl)-2,5-diphenyl tetrazolium bromide (MTT) colorimetric assay. Cisplatin was included in the experiments as a positive control, and the IC50 of DHA is also presented to compare the anticancer activities. The calculated IC50 values were reported differently according to the different cancer cells.
(§2) The CNE-2, HepG2, HeLa, and BEL-7402 cell lines used in this work were all purchased from the Institute of Biochemistry and Cell Biology, China Academy of Sciences. All were supplemented with 10% heat-inactivated fetal bovine serum in a humidified atmosphere of 5% CO2/95% air at 37 °C. In order to investigate the potential of compounds 4, cisplatin, a commercial classical anticancer drug was used as a reference drug. CNE-2, HepG2, HeLa, and BEL-7402 cells were seeded into 96-well microculture plates and allowed to adhere for 24 h, respectively. After cells were exposed to compounds at concentrations from 100 to 0.1 μM for 48 h, medium was aspirated and replenished with complete medium. IC50 values was evaluated by MTT tetrazolium dye assay. All the tests were repeated in at least three independent experiments. The IC50 values of the compounds were calculated using SPSS Version 10 software (IBM, New York, NY, USA), which defined the IC50 value as the concentration required to inhibit cell growth by 50%.
(In general: Tetrazolium assays rely on reduction of a dye to a coloured formazan, in cell work by metabolically active cells.)

The test system of series [3] is CNE-2 (nasopharynx) human carcinoma cell line. Briefly: MTT cytotoxicity assay, CNE-2 cells. The conditions noted are these: Homo sapiens, 48 h exposure. In kind it is cell-based. On the procedure:
as §1, §2

The subject of series [4] is BEL-7402 (liver) human carcinoma cell line. In words: MTT cytotoxicity assay, BEL-7402 cells. In kind it is cell-based. The conditions noted are these: Homo sapiens, 48 h exposure. The method, then: as §1, §2
The subject of series [5] is HepG2 (liver) human carcinoma cell line. Briefly: MTT cytotoxicity assay, HepG2 cells. In kind it is cell-based. Particulars: 48 h exposure. The method, then: as §1, §2

Bounds are passed on as bounds.

Consider twelve compounds from PMC6152134, “Synthesis and In Vitro Anticancer Activity of Novel Dehydroabietic Acid-Based Acylhydrazones” (Molecules : A Journal of Synthetic Chemistry and Natural …, 2017).

The term IC50 denotes the midpoint of a concentration-inhibition curve. Low values mean inhibition by little substance, high ones a need for much substance. What is called melting point is the temperature, or range, at which the solid turns liquid. The compound `CC(C)c1ccc2c(c1)CCC1C(C)(C(=O)OCC(=O)NN=Cc3ccccc3)CCCC21C` (centres unmarked) [4a] had a melting point of 155.1 to 156.7 °C. The IC50 in series [1] is more than 100 µM. For the same compound, in series [2] (Homo sapiens, HeLa, 48 h), the IC50 came out at 17.89 ± 0.13 µM. For the same compound, in series [3], the half-maximal inhibitory concentration (IC50) was found to be 28.2 ± 0.43 µM. Half-maximal inhibition in series [4] (IC50) required 36.7 ± 0.34 µM. The compound further returned an IC50 in series [5] (Homo sapiens, HepG2, 48 h) of 27.8 ± 0.58 µM.

`Cc1ccc(C=NNC(=O)COC(=O)C2(C)CCCC3(C)c4ccc(C(C)C)cc4CCC23)cc1` (centres unmarked) [4b] showed a melting point of 170 to 172.1 °C. In series [1], this compound yielded an IC50 of 68.6 ± 2.14 µM. In series [2] (Homo sapiens, HeLa, 48 h), this compound came in with an IC50 of 6.72 ± 0.22 µM. For the same compound, inhibition in series [3] was half-maximal at 17.2 ± 0.21 µM (IC50). Besides, half-maximal inhibition in series [4] (IC50) required 15.38 ± 0.08 µM. The midpoint of inhibition in series [5] (Homo sapiens, HepG2, 48 h), the IC50, lay at 12.4 ± 0.31 µM.

In turn, `CC(C)c1ccc2c(c1)CCC1C(C)(C(=O)OCC(=O)NN=C/C=C/c3ccccc3)CCCC21C` (centres unmarked) [4c, N’-(3-Phenylallylidene)-2-(dehydroabietyloxy)acetohydrazide] gave a melting point of 185.7 to 187.3 °C. This compound showed an IC50 in series [1] of 53.2 ± 1.36 µM. This compound also registered an IC50 in series [2] (Homo sapiens, HeLa, 48 h) of 10.8 ± 0.43 µM. Also, the IC50 in series [3] was found to be 15.8 ± 0.56 µM. Besides, the IC50 in series [4] was 21.03 ± 0.09 µM. In series [5] (Homo sapiens, HepG2, 48 h), this compound yielded a half-maximal inhibitory concentration (IC50) of 27.6 ± 0.23 µM.

In turn, `COc1cc(C=NNC(=O)COC(=O)C2(C)CCCC3(C)c4ccc(C(C)C)cc4CCC23)ccc1O` (centres unmarked) [4d] registered a melting point of 117.6 to 119 °C. For the same compound, the IC50 in series [1] amounted to 50.7 ± 1.82 µM. The compound also gave a half-maximal inhibitory concentration (IC50) in series [2] (Homo sapiens, HeLa, 48 h) of 12.22 ± 0.08 µM. This compound also yielded a 50% inhibitory concentration (IC50) in series [3] of 38.7 ± 0.49 µM. In series [4], the half-maximal inhibitory concentration (IC50) amounted to 33.6 ± 0.38 µM. For the same compound, the IC50 in series [5] (Homo sapiens, HepG2, 48 h) was determined as 35.26 ± 0.11 µM.

`CC(C)c1ccc2c(c1)CCC1C(C)(C(=O)OCC(=O)NN=Cc3ccc(N(C)C)cc3)CCCC21C` (centres unmarked) [4e] had a melting point of 163.4 to 164.7 °C. Further, in series [1], half-maximal inhibition (IC50) was put at 63 ± 3.06 µM. The IC50 in series [2] (Homo sapiens, HeLa, 48 h) came to 34.92 ± 0.16 µM. The same compound came in with an IC50 in series [3] of 48.85 ± 0.05 µM. This compound registered an IC50 in series [4] of 15.6 ± 0.44 µM. The half-maximal inhibitory concentration (IC50) in series [5] (Homo sapiens, HepG2, 48 h) was 7.62 ± 0.32 µM.

With `CC(C)c1ccc2c(c1)CCC1C(C)(C(=O)OCC(=O)NN=Cc3ccco3)CCCC21C` (centres unmarked) [4f], the melting point was 125.7 to 126.4 °C. The same compound gave a concentration for half-maximal inhibition (IC50) in series [1] of 61.9 ± 1.34 µM. The same compound had a 50% inhibitory concentration (IC50) in series [2] (Homo sapiens, HeLa, 48 h) of 33.23 ± 0.21 µM. This compound also displayed an IC50 in series [3] of 51.39 ± 0.34 µM. The compound also yielded an IC50 in series [4] of 16.9 ± 0.41 µM. In series [5] (Homo sapiens, HepG2, 48 h), this compound gave a concentration for half-maximal inhibition (IC50) of 25.6 ± 0.35 µM.

For `CC(C)c1ccc2c(c1)CCC1C(C)(C(=O)OCC(=O)NN=Cc3ccccc3O)CCCC21C` (centres unmarked) [4g], the melting point fell in the range of 214.9 to 215.6 °C. This compound gave a half-inhibitory concentration (IC50) in series [1] of more than 100 µM. In series [2] (Homo sapiens, HeLa, 48 h), the IC50 came to 27.3 ± 0.5 µM. The compound also had a 50% inhibitory concentration (IC50) in series [3] of 60.4 ± 1.02 µM. Also, the 50% inhibitory concentration (IC50) in series [4] is 36.4 ± 0.74 µM. For the same compound, the IC50 in series [5] (Homo sapiens, HepG2, 48 h) was 12.5 ± 0.46 µM.

`CC(C)c1ccc2c(c1)CCC1C(C)(C(=O)OCC(=O)NN=Cc3ccccc3[N+](=O)[O-])CCCC21C` (centres unmarked) [4h] registered a melting point of 94.9 to 96.7 °C. This compound displayed a half-maximal inhibitory concentration (IC50) in series [1] of more than 100 µM. Further, in series [2] (Homo sapiens, HeLa, 48 h), the concentration for half-maximal inhibition (IC50) was 15.2 ± 0.29 µM. This compound also came in with an IC50 in series [3] of 98.78 ± 0.45 µM. This compound gave an IC50 in series [4] of 38.5 ± 0.52 µM. In addition, in series [5] (Homo sapiens, HepG2, 48 h), the IC50 amounted to 44.6 ± 0.92 µM.

Regarding `CC(C)c1ccc2c(c1)CCC1C(C)(C(=O)OCC(=O)NN=Cc3cccc([N+](=O)[O-])c3)CCCC21C` (centres unmarked) [4i], the melting point lay in the range of 99.6 to 101.9 °C. The same compound displayed an IC50 in series [1] of 77.1 ± 0.96 µM. The same compound had an IC50 in series [2] (Homo sapiens, HeLa, 48 h) of 13.9 ± 0.41 µM. Also, the midpoint of inhibition in series [3], the IC50, lay at 12.6 ± 0.24 µM. Moreover, it took 44.65 ± 0.21 µM to reach half-maximal inhibition in series [4] (IC50). In series [5] (Homo sapiens, HepG2, 48 h), this compound yielded a half-inhibitory concentration (IC50) of 57.8 ± 0.75 µM.

Consider `CC(C)c1ccc2c(c1)CCC1C(C)(C(=O)OCC(=O)NN=Cc3ccc([N+](=O)[O-])cc3)CCCC21C` (centres unmarked) [4j], for which the melting point lay within 177.2 to 179.8 °C. Besides, in series [1], the IC50 is more than 100 µM. In series [2] (Homo sapiens, HeLa, 48 h), this compound returned a half-inhibitory concentration (IC50) of 13.06 ± 0.08 µM. Moreover, the IC50 in series [3] worked out at 93.26 ± 0.52 µM. In series [4], this compound registered an IC50 of 27.45 ± 0.17 µM. The IC50 in series [5] (Homo sapiens, HepG2, 48 h) was found to be 39.5 ± 0.82 µM.

Compound `CC(C)c1ccc2c(c1)CCC1C(C)(C(=O)OCC(=O)NN=Cc3ccccc3Br)CCCC21C` (centres unmarked) [4k, N’-(2-Bromobenzylidene)-2-(dehydroabietyloxy)acetohydrazide] returned a melting point of 184.9 to 185.7 °C. This compound came in with a half-maximal inhibitory concentration (IC50) in series [1] of 65.9 ± 1.48 µM. Moreover, in series [2], the IC50 was 5.53 ± 0.04 µM. Also, the IC50 in series [2] (Homo sapiens, HeLa, 48 h) was less than 10 µM. Moreover, half-maximal inhibition in series [3] (IC50) was put at 47.7 ± 0.23 µM. This compound showed an IC50 in series [4] of 48.16 ± 0.32 µM. In series [5], this compound returned an IC50 of 8.47 ± 0.55 µM. The IC50 in series [5] (Homo sapiens, HepG2, 48 h) is less than 10 µM.

In turn, `CC(C)c1ccc2c(c1)CCC1C(C)(C(=O)OCC(=O)NN=Cc3cccc(Br)c3)CCCC21C` (centres unmarked) [4l] returned a melting point of 178.3 to 179.8 °C. The compound also had an IC50 in series [1] of 86.4 ± 3.12 µM. In series [2] (Homo sapiens, HeLa, 48 h), this compound showed an IC50 of 25.14 ± 0.1 µM. Also, half-maximal inhibition in series [3] (IC50) required 11.45 ± 0.11 µM. Further, the concentration for half-maximal inhibition (IC50) in series [4] worked out at 19.9 ± 0.27 µM. The IC50 in series [5] (Homo sapiens, HepG2, 48 h) was found to be 35.1 ± 0.96 µM.
